Test results as given in US7897582B2, “Oligonucleotide compositions and methods for the modulation of the expression of B7 protein” (Isis Pharmaceuticals, Inc., priority 2003, dated 2011).
Strand notation (5' to 3'): a small letter for the sugar, then the base; units joined by * are phosphorothioate-linked, units joined directly phosphodiester-linked; [ ] holds rarer units or linkages, { } end groups; capitals alone tell only the bases. e = 2'-O-(2-methoxyethyl) (MOE); [5mC] = 5-methylcytosine; d = 2'-deoxy (DNA)

Experiments:
[1] = tested on: human B7-1; experiment: Cell surface expression of B7-1 in pcB7-1-transfected COS-7 cells by flow cytometry; type: cell-based; details: for % B7-1 EXPRESSION: human B7 cell surface expression, Table 16; for % Surface Inhibition / % Surface Expression: COS-7 cells, B7-1 cell surface; for % Surface Expression: basal = 100%
Protocol: The ability of oligonucleotides to inhibit B7-1 expression was evaluated by measuring the cell surface expression of B7-1 in transfected COS-7 cells by flow cytometry.
A T-175 flask was seeded at 75% confluency with COS-7 cells (ATCC accession No. CRL 1651). The plasmid pcB7-1 was introduced into cells by standard calcium phosphate transfection. Following a 4 hour transfection, the cells were trypsinized and seeded in 12-well dishes at 80% confluency. The cells were allowed to adhere to the plastic for 1 hour and were then washed with phosphate-buffered saline (PBS). OptiMEM™ (GIBCO-BRL, Gaithersburg, Md.) medium was added along with 15 μg/mL of Lipofectin™ (GIBCO-BRL, Gaithersburg, Md.) and oligonucleotide at the indicated concentrations. After four additional hours, the cells were washed with phosphate buffered saline (PBS) and incubated with fresh oligonucleotide at the same concentration in DMEM (Dulbecco et al., Virol., 1959, 8, 396; Smith et al., Virol., 1960, 12, 185) with 10% fetal calf sera (FCS).
In order to monitor the effects of oligonucleotides on cell surface expression of B7-1, treated COS-7 cells were harvested by brief trypsinization 24-48 hours after oligonucleotide treatment. The cells were washed with PBS, then resuspended in 100 μL of staining buffer (PBS, 0.2% BSA, 0.1% azide) with 5 μL conjugated anti-B7-1-antibody (i.e., anti-hCD80-FITC, Ancell, Bayport, Minn.; FITC: fluorescein isothiocyanate). The cells were stained for 30 minutes at 4° C., washed with PBS, resuspended in 300 μL containing 0.5% paraformaldehyde. Cells were harvested and the fluorescence profiles were determined using a flow cytometer.
B7 antisense oligonucleotides were tested for their effect on cell surface expression of both B7-1 and B7-2. Cell surface expression was measured as described in Example 1. Experiments were done for both human B7 and mouse B7.
The oligonucleotides were screened as described in Example 2 except that the concentration of oligonucleotide was varied as shown in Table 18.

[2] = tested on: human B7-2; experiment: Cell surface expression of B7-2 in transfected COS-7 cells by flow cytometry; type: cell-based; details: for % Surface Inhibition / % Surface Expression: COS-7 cells, B7-2 cell surface; for % Surface Expression: basal = 100%; for % B7-2 EXPRESSION: human B7 cell surface expression, Table 16
How it was run: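 COS-7 cells transfected with B7-2 plasmid (calcium phosphate), then treated with antisense oligonucleotides with 15 μg/mL Lipofectin for 4 h, followed by oligonucleotide in DMEM/10% FCS. After 24-48 h, cells stained with FITC- or PE-conjugated anti-CD86 for 30 min at 4 °C and analysed by flow cytometry.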

[3] = tested on: hB7-2 mRNA; experiment: Ribonuclease protection assay of hB7-2 mRNA in transfected COS-7 cells; type: cell-based, human
How it was run: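 COS-7 cells transfected with hB7-2 were treated with antisense oligonucleotides at varied concentrations, mismatch controls included; RNA taken 18 h after treatment. 5 μg total RNA hybridised overnight at 42° C with 32P antisense probe (B7-2 positions 1044-1391) or beta-actin probe, RNase A/T1 digested, gel-resolved and quantified by phosphorimaging.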

[4] = tested on: Human B7-1 mRNA; experiment: Human B7-1 mRNA expression in COS-7 cells, screened as in Example 4; type: cell-based

Row | Substance | % B7-1 EXPRESSION [1] [%] | % B7-2 EXPRESSION [2] [%] | % Surface Inhibition ([1]; dose 10 nM) [%] | % Surface Expression ([1]; dose 10 nM) [%] | % Surface Inhibition ([1]; dose 30 nM) [%] | % Surface Expression ([1]; dose 30 nM) [%] | % Surface Inhibition ([1]; dose 100 nM) [%] | % Surface Expression ([1]; dose 100 nM) [%] | % Surface Inhibition ([1]; dose 300 nM) [%] | % Surface Expression ([1]; dose 300 nM) [%] | % mRNA EXPRESSION ([4]; 10 nM, COS-7, Table 8) [%] | % mRNA INHIBITION ([4]; 10 nM, COS-7, Table 8) [%] | % mRNA EXPRESSION ([4]; 30 nM, COS-7, Table 8) [%] | % mRNA INHIBITION ([4]; 30 nM, COS-7, Table 8) [%] | % mRNA EXPRESSION ([4]; 100 nM, COS-7, Table 8) [%] | % mRNA INHIBITION ([4]; 100 nM, COS-7, Table 8) [%] | % mRNA EXPRESSION ([4]; 300 nM, COS-7, Table 8) [%] | % mRNA INHIBITION ([4]; 300 nM, COS-7, Table 8) [%] | % mRNA EXPRESSION ([4]; human B7-1 mRNA, Table 7) [%] | other results
1 | 22294 (eG*eG*eT*e[5mC]*e[5mC]*dA*dA*d[5mC]*dT*dG*dT*d[5mC]*d[5mC]*dG*dA*eA*eT*e[5mC]*eA*eA; antisense) [compound 22294] | 77 | 28 | – | – | – | – | – | – | – | – | – | – | – | – | – | – | – | – | – | % Surface Inhibition ([2]; dose 10 nM): 11%; % Surface Expression ([2]; dose 10 nM): 89%; % Surface Inhibition ([2]; dose 30 nM): 38%; % Surface Expression ([2]; dose 30 nM): 62%; % Surface Inhibition ([2]; dose 100 nM): 71%; % Surface Expression ([2]; dose 100 nM): 29%; % Surface Inhibition ([2]; dose 300 nM): 88%; % Surface Expression ([2]; dose 300 nM): 12%; % mRNA INHIBITION ([3]; COS-7 cells, B7-2 mRNA, oligonucleotide dose 10 nM): 7%; % mRNA EXPRESSION ([3]; COS-7 cells, B7-2 mRNA, oligonucleotide dose 10 nM, basal = 100%): 93%; % mRNA INHIBITION ([3]; COS-7 cells, B7-2 mRNA, oligonucleotide dose 30 nM): 5%; % mRNA EXPRESSION ([3]; COS-7 cells, B7-2 mRNA, oligonucleotide dose 30 nM, basal = 100%): 95%; % mRNA INHIBITION ([3]; COS-7 cells, B7-2 mRNA, oligonucleotide dose 100 nM): 42%; % mRNA EXPRESSION ([3]; COS-7 cells, B7-2 mRNA, oligonucleotide dose 100 nM, basal = 100%): 58%; % mRNA INHIBITION ([3]; COS-7 cells, B7-2 mRNA, oligonucleotide dose 300 nM): 55%; % mRNA EXPRESSION ([3]; COS-7 cells, B7-2 mRNA, oligonucleotide dose 300 nM, basal = 100%): 45%; % mRNA EXPRESSION ([3]; human B7-2 mRNA, Table 12): 21%
2 | 22316 (eG*e[5mC]*eT*e[5mC]*eA*d[5mC]*dG*dT*dA*dG*dA*dA*dG*dA*d[5mC]*e[5mC]*e[5mC]*eT*e[5mC]*e[5mC]; antisense) [compound 22316] | 31 | 100 | 26 | 74 | 26 | 74 | 53 | 47 | 66 | 34 | 99 | 1 | 73 | 27 | 58 | 42 | 33 | 67 | 42 | –
3 | 22317 (eT*e[5mC]*e[5mC]*e[5mC]*eA*dG*dG*dT*dG*d[5mC]*dA*dA*dA*dA*d[5mC]*eA*eG*eG*e[5mC]*eA; antisense) [compound 22317] | 28 | 91 | – | – | – | – | – | – | – | – | – | – | – | – | – | – | – | – | 43 | –
4 | 22320 (eT*eT*eG*eA*eG*dG*dT*dA*dT*dG*dG*dA*d[5mC]*dA*d[5mC]*eT*eT*eG*eG*eA; antisense) [compound 22320] | 37 | 86 | – | – | – | – | – | – | – | – | – | – | – | – | – | – | – | – | 45 | –
5 | 22324 (eG*eG*e[5mC]*e[5mC]*eA*dT*dA*dT*dA*dT*dT*d[5mC]*dA*dT*dG*eT*e[5mC]*e[5mC]*e[5mC]*e[5mC]; antisense) [compound 22324] | 37 | 91 | – | – | – | – | – | – | – | – | – | – | – | – | – | – | – | – | 46 | –
6 | 22325 (eG*e[5mC]*e[5mC]*eA*eG*dG*dA*dT*d[5mC]*dA*d[5mC]*dA*dA*dT*dG*eG*eA*eG*eA*eG) [compound 22325] | 32 | 89 | – | – | – | – | – | – | – | – | – | – | – | – | – | – | – | – | 46 | –
7 | 22334 (antisense eA*eA*eG*e[5mC]*eA*dG*dT*dA*dG*dG*dT*d[5mC]*dA*dG*dG*e[5mC]*eA*eG*e[5mC]*eA) [compound 22334] | 28 | 92 | – | – | – | – | – | – | – | – | – | – | – | – | – | – | – | – | 43 | –
8 | 22335 (antisense e[5mC]*e[5mC]*eT*eT*eG*d[5mC]*dT*dT*d[5mC]*dT*dG*d[5mC]*dG*dG*dA*e[5mC]*eA*e[5mC]*eT*eG) [compound 22335] | 23 | 95 | 19 | 81 | 31 | 69 | 53 | 47 | 62 | 38 | 81 | 19 | 63 | 37 | 43 | 57 | 35 | 65 | 43 | –
9 | 22337 (antisense eT*eG*eA*e[5mC]*eG*dG*dA*dG*dG*d[5mC]*dT*dA*d[5mC]*d[5mC]*dT*eT*e[5mC]*eA*eG*eA) [compound 22337] | 48 | 101 | – | – | – | – | – | – | – | – | – | – | – | – | – | – | – | – | 42 | –
10 | 22338 (antisense eG*e[5mC]*e[5mC]*eT*e[5mC]*dA*dT*dG*dA*dT*d[5mC]*d[5mC]*d[5mC]*d[5mC]*dA*e[5mC]*eG*eA*eT*e[5mC]) [compound 22338] | 22 | 96 | 22 | 78 | 35 | 65 | 50 | 50 | 60 | 40 | 68 | 32 | 60 | 40 | 53 | 47 | 41 | 59 | 40 | –
